Measured values as given in patent US20110123623A1, “RHAMNOLIPID MECHANISM” (priority 2009, published 2011).

Columns and labels:
[1] = Storage stability of Di-rhamnolipid W3CTS; assay type: physicochemical; settings: kept under Nitrogen in bottles at room temperature, 10 years
Text: Di-rhamnolipid W3CTS has been isolated from Pseudomonas aeruginosa. Production of >98.5% pure Di-rhamnolipid W3CTS is a very expensive procedure; thus, the goal is to produce the clinically accepted purity of the rhamnolipid that has a long shelf life.

[2] = test system: B-lymphocyte cells isolated from the spleen of balb/c mice; assay: Mouse B-cell proliferation (thymidine incorporation); assay type: cell-based
Experimental: T-lymphocyte cells isolated from thymus of balb/c mice weighing 17±1 g were used. Test compound and/or vehicle was incubated with the cells (4×10^6/ml) in the presence of 3 μg/ml concanavalin A (Con A) overnight. Thymidine incorporation was assessed by liquid scintillation counting. B-lymphocyte cells isolated from the spleen of balb/c mice weighing 17±1 g were used. Test compound and/or vehicle was incubated with the cells (1.5×10^6/ml) in the presence of 10 μg/ml lipopolysaccharide (LPS) in AIM-V medium pH 7.4 at 37° C., during 24 hours. [^3H]Thymidine (120 nM) was then added for an additional overnight incubation period. Thymidine incorporation was assessed by liquid scintillation counting. […] T-cells isolated from mouse thymus were inhibited at the concentration of 10 μM by 24% and in the presence of concanavalin T-cells proliferation was inhibited 43%.

[3] = test system: female ICR mice; assay: Immunostimulation (cellular): oxazolone-induced delayed type hypersensitivity; assay type: in vivo, mouse; settings: oxazolone-induced DTH
Text: Immunostimulation (cellular): Oxazolone-induced delayed type hypersensitivity of female ICR mice was negative.

[4] = test system: C. albicans; assay: Immunomodulation activity: C. albicans challenge survival; assay type: in vivo, mouse; settings: 100 mg/kg i/p 24 hours before i/v C. albicans challenge; ICR male mice
Experimental: Di-rhamnolipid W3CTS was administered i/p (100 mg/kg) to groups of 10 ICR derived male mice weighing 24±2 g at 24 hours before i/v challenge with a suspension of C. albicans (1×10^7 cfu/mouse) sufficient to result in 90-100% mortality within 10 days in vehicle treated animals. Survival of 20 percent or more (≧20) of the animals is considered significant and indicates possible immunomodulation activity. Reference agent was lipopolysaccharide 0.3 mg/kg i/p.

[5] = test system: Swiss-Webster female mice; assay: Acute cutaneous irritation, mouse ear assay (Part A); assay type: in vivo; settings: single topical application, up to 24 hours
Experimental: (§1) Effects of Di-rhamnolipid W3CTS on TPA/pyr induced acute inflammation in the ears of Swiss-Webster female mice.
(§2) The aim of this study was two-fold. In Part A the potential of a single topical application of W3CTS to cause acute cutaneous irritation (up to 24 hours) was measured in a mouse ear assay system. […] The aim of Part B was to determine the effects of a single topical administration of W3CTS on acute dermal inflammation induced by TPA/pyr, Part B was designed to differentiate the ability of Di-rhamnolipid W3CTS at concentration 1 mg/ml to prevent, inhibit or reverse induced ear inflammation.

[6] = test system: Swiss-Webster female mice; assay: TPA/pyr induced acute dermal ear inflammation (Part B); assay type: in vivo, mouse
Experimental: as §1, §2
The time of maximal reduction of inflammation was dependent on the time of treatment, with respect to induction. The effect of Di-rhamnolipid W3CTS was moderate (up to 32% decrease in inflammation) but sustained. […] Post treatment reversed established inflammation by 32% at 11 hours. […] It may be possible to increase the anti-inflammatory effect of Di-rhamnolipid W3CTS by use of a different dose formulation, or by repeated treatments.

[7] = test system: nude guinea pigs; assay: DNCB induced delayed type hypersensitivity in nude guinea pigs; assay type: in vivo, guinea pig
Experimental: The nude guinea pig is used as a test animal because of different animal skins; nude guinea pig skin is claimed to be the one closest resembling human skin.
In DNCB sensitized guinea pigs delayed type hypersensitivity reactions were induced with patches soaked with 0.25% (w/v) DNCB in ethanol/propylene glycol kept on the animals back for 24 hours. The test sites were treated twice daily during 7 days with: Dovonex ointment ([…]), 1% Di-rhamnolipid W3CTS in Vaseline, vehicle and untreated area. […] Dovonex has been improved by time.

[8] = in vivo; settings: female, Swiss-Webster, mouse, iv
Experimental: (§3) Maximum tolerated doses of di-rhamnolipid W3CTS were administered intravenously in female Swiss-Webster mice.
(§4) Female Swiss-Webster mice obtained from the Houston, Tex. site Harlan Sprague Dawley, Inc were used in the study. All mice were divided into 6 groups. The vehicle and Di-rhamnolipid W3CTS were administered as an intravenous bolus, via tail vein, beginning with lowest dose level (75 mg/kg). […] In this study, the maximum tolerated dose of di-rhamnolipid W3CTS in female Swiss-Webster mice was 120 mg/kg. Three mice (LD50) of the next higher dose tested (135 /mg/kg) died immediately upon administration.

[9] = test system: female Swiss-Webster mice; assay: in vivo; settings: mouse
Experimental: as §3, §4

[10] = test system: female and male mice; assay: Blood findings after one single i/v dose; assay type: in vivo, mouse; settings: 75 mg/kg single i/v dose
Experimental: Blood findings in female and male mice treated i/v with one single dose of 75 mg/kg of Di-rhamnolipid W3CTS
Monocytes were increased in treated mice up to 100% after 4th day and 29th

[11] = Micronucleus test in-vivo
[12] = test system: patients; assay: Treatment of patients with seborrheic dermatitis, lichen planus and dermatitis circumscripta unilocularis; assay type: in vivo, human
Experimental: Twelve psoriatic hospital bed patients, and one patient with seborrheic dermatitis and psoriasis, one patient with lichen planus and one with dermatitis cicumscripta unilocullaris as an out clinic patient were recruited as study volunteers.
Patients with seborhheic dermatitis, lichen planus and dermatitis unilocularis circumscripta eczematoides were cured.
This condition, confirmed with clinical appearance and histopahological findings, was treated with different standard approaches, (mostly) steroids, but condition worsened with tendency to spread further to the large wound covered by thick crust. Following the treatment with 1% Di-rhamnolipid W3CTS, eucerin ointment was introduced with overnight inclusions during four weeks. […] Patient died by natural course 15 years after treatment had been finished.

CCCCCCCC(CC(=O)O)OC(=O)CC(CCCCCCC)OC1OC(C)C(O)C(O)C1OC1OC(C)C(O)C(O)C1O (centres unmarked) [Di-rhamnolipid W3CTS]
change of structure on storage [1]: did not change its structure during 10 years
effect on B-cell proliferation ([2]; 10 μM in 0.5% DMSO, without LPS): did not have any effect
inhibition at 10 µM ([2]; Mus musculus, B-cell, 10 μM, in the presence of LPS): ≤ 54%
Immunostimulation (cellular) [3]: negative
immunomodulation activity (survival of 20 percent or more considered significant) [4]: possible significant immunomodulation activity
acute cutaneous irritation (ear erythema) [5]: did not cause acute cutaneous irritation
decrease in inflammation (overall) ([6]; 1 mg/ml topical, maximal effect): up to 32%
topical anti-inflammatory efficacy ([6]; 1 mg/ml, 1.0% w/v, single topical administration, 24 hours time-course): effective as a topical therapeutic anti-inflammatory agent
inhibition of inflammation, concurrent treatment ([6]; at 6 hours): about 32%
reversal of established inflammation, post treatment ([6]; at 11 hours, given 2 hours after induction): 32%
protective effect, pretreatment ([6]; given one hour prior to induced inflammation): short duration as a protective agent
anti-inflammatory effect in the model ([7]; 1% in Vaseline, preliminary data): very strong anti-inflammatory effect
state of test areas by day 7 ([7]; treated twice daily during 7 days, W3CTS 1% in Vaseline): healed
LD50 at 14 day [8]: 135 mg/kg
MTD at 14 day [8]: 120 mg/kg
gross abnormalities at necropsy [9]: no gross abnormalities
tail finding, higher dose groups [9]: scabbing and necrosis of tails
increase of monocytes ([10]; after 4th day and 29th): up to 100%
increase of neutrophils in blood ([10]; after 29 days): 43.61%
decrease of lymphocytes ([10]; fourth day): 24.15%
increase of neutrophils in blood ([10]; fourth day): 51.77%
decrease of lymphocytes ([10]; twenty nine days): 24.60%
micronucleus test [11]: negative
outcome in seborhheic dermatitis, lichen planus and dermatitis unilocularis circumscripta eczematoides ([12]; 1.0% eucerin ointment): cured
skin over the wound ([12]; after one year): looking normal
wound healing in dermatitis circumscripta unilocularis ([12]; person, 1% eucerin ointment, overnight inclusions during four weeks): The wound started to heal
